Results taken from patent US20220127247A1, “N-(PYRIDIN-2-YL)PYRIDINE-SULFONAMIDE DERIVATIVES AND THEIR USE IN THE TREATMENT OF DISEASE” (NOVARTIS AG, priority 2019, published 2022).

Biological target: T1, delF508-CFTR (Homo sapiens, UniProt P13569, DEL508-508)
T1 construct: expressed in transfected cells
Assay: Measurement of delF508-CFTR-HRP surface expression in CFBE41o- cells
Type: cell-based
Conditions: for EC50: HRP-tagged delF508-CFTR in CFBE41o- cells, 24 h with compound, luminescence, 10-point curve, top 10 μM; for Emax: efficacy relative to reference compound 3-(6-(1-(2,2-difluorobenzo[d][1,3]dioxol-5-yl)cyclopropane-1-carboxamido)-3-methylpyridin-2-yl)benzoic acid, CFBE41o- cells, 24 h, read-out: DelF508-CFTR-HRP Amax %
Source text: Measurement of delF508-CFTR-HRP Surface Expression in CFBE41o-Cells
This assay quantifies the cell surface expressions of the mutant CFTR channel using an extracellular HRP tag.
A cellular assay was developed to measure surface expression of horseradish peroxidase (HRP) tagged delF508-CFTR in the human bronchial epithelial immortalized CFBE41o-cell line (Phuan, P. W., et al, (2014) Molecular Pharmacology 86:42-51). Specifically, the HRP sequence was inserted into the fourth extracellular loop of delF508-CFTR and stably expressed in CFBE41o-cells. Cells were seeded in 384 well plate at a density of 5000 cells/well and incubated at 37° C. for 12 to 24 hours in medium (Gibco MEM #11095, 10% FBS, 10 mM HEPES, […], 200 μg/mL G418, 3 μg/mL Puromycin). The delF508-CFTR-HRP expression was induced with 500 ng/mL doxycycline (Sigma D-9891, dissolved in H2O and sterile filtered) in medium and the cells were incubated at 37° C. for 48 h. Old medium was removed and fresh medium was added containing 500 ng/mL doxycycline and unknown test compound at required test concentration in DMSO, not exceeding 0.5% final DMSO concentration. The highest concentration tested was 10 μM with a 10-point concentration response curve using a 3-fold dilution. After addition of compounds, the cells were incubated for 24 h at 37° C. On the final day, cells were washed four times in PBS containing 1 mM MgCl2 and 0.1 mM CaCl2. HRP-Substrate (SuperSignal ELISA Pico, Fisher #37069) 20 μl/well was added and the luminescence signal was determined (Viewlux, Perkin Elmer). Light was emitted upon addition of exogenous HRP-Substrate only when delF508-CFTR-HRP reached the cell surface and the HRP tag was accessible to the HRP-Substrate (note: HRP-Substrate cannot cross the lipid bilayer to reach delF508-CFTR-HRP misfolded within the cell).
The median activity for the lowest concentration of the compounds on each assay plate was calculated and this value was used to normalize the signal for each well on the respective plate. Three replicates at each concentrations for every compound were run to determine one EC50. The median value was determined and used to calculate compound activities as described below. Effective half maximal values (EC50) were calculated for each compound by performing logistic regression on measured dose-response data points using the equation: […]
where “Y” is the observed activity, “Bottom” is the lowest observed value, “Top” is the highest observed value, and the “Hill coefficient” gives the largest absolute value of the slope. The curve fitting is carried out by a curve fitting program implemented at GNF using Matlab (Mathworks).
The dose response curves also were used to calculate Fold Change (FC) using the equation: […]
Compound efficacy relative to the reference compound 3-(6-(1-(2,2-difluorobenzo[d][1,3]dioxol-5-yl)cyclopropane-1-carboxamido)-3-methylpyridin-2-yl)benzoic acid was determined using the following formula: […]

T1 sequence (P13569 with tags, fused parts or gaps DEL508-508): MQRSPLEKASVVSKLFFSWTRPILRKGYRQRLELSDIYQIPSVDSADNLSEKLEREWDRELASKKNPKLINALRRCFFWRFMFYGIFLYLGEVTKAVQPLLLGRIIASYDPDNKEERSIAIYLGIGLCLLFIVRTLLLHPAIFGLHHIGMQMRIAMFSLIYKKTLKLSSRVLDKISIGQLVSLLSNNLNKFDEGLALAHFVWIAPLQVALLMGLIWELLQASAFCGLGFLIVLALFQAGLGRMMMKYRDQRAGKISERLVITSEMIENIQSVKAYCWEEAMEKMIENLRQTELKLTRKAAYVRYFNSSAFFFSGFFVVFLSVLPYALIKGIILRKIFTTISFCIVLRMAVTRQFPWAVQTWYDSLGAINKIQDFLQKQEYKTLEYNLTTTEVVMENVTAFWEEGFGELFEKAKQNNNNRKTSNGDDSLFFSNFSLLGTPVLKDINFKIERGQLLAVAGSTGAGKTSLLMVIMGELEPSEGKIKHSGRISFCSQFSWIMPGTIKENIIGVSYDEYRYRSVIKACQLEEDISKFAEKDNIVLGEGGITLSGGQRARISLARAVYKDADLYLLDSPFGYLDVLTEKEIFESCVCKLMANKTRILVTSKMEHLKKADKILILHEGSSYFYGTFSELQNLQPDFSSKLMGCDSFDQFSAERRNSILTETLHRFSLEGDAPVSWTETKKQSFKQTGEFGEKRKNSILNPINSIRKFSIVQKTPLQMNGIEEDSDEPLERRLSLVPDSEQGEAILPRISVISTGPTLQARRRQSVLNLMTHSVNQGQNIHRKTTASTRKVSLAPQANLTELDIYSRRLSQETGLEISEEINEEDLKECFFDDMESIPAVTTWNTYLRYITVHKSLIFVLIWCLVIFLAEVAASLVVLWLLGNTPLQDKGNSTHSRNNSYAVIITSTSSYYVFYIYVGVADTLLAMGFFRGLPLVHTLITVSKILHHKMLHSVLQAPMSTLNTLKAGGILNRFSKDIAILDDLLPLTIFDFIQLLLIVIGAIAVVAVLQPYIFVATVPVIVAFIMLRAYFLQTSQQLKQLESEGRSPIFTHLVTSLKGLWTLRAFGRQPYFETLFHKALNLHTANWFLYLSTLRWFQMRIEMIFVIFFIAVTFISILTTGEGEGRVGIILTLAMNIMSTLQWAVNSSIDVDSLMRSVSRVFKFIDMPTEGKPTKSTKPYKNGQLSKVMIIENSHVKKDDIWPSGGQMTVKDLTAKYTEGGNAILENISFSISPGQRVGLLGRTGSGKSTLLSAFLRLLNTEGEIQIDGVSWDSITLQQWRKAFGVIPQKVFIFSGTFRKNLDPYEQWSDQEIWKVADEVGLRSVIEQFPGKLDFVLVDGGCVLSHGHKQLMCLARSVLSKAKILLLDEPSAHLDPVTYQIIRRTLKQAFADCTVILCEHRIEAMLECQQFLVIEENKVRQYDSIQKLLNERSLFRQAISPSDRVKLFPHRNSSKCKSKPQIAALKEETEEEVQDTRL

| SMILES | EC50 [nM] | Emax [%] |
| --- | --- | --- |
| O=C(O)CCNc1cccc(S(=O)(=O)Nc2ccc(C(F)(F)F)c(-c3ccccc3C3CC3)n2)n1 [Compound 39, 3-((6-(N-(6-(2-cyclopropylphenyl)-5-(trifluoromethyl)pyridin-2-yl)sulfamoyl)pyridin-2-yl)amino)propanoic Acid] | 3260 | 257 |
| O=C(O)CCCNc1cccc(S(=O)(=O)Nc2ccc(C(F)(F)F)c(-c3ccccc3C3CC3)n2)n1 [Compound 40, 4-((6-(N-(6-(2-cyclopropylphenyl)-5-(trifluoromethyl)pyridin-2-yl)sulfamoyl)pyridin-2-yl)amino)butanoic Acid] | 2530 | 314 |
| CN(CCCC(=O)O)c1cccc(S(=O)(=O)Nc2ccc(C(F)(F)F)c(-c3ccccc3C3CC3)n2)n1 [Compound 41, 4-((6-(N-(6-(2-cyclopropylphenyl)-5-(trifluoromethyl)pyridin-2-yl)sulfamoyl)pyridin-2-yl)(methyl)amino)butanoic Acid] | 1480 | – |
| O=C(O)CCCCNc1cccc(S(=O)(=O)Nc2ccc(C(F)(F)F)c(-c3ccccc3C3CC3)n2)n1 [Compound 42, 5-((6-(N-(6-(2-cyclopropylphenyl)-5-(trifluoromethyl)pyridin-2-yl)sulfamoyl)pyridin-2-yl)amino)pentanoic Acid] | 2670 | 507 |
| Cc1ccccc1-c1nc(NS(=O)(=O)c2cccc(NCCCCC(=O)O)n2)ccc1C(F)(F)F [Compound 43, 5-((6-(N-(6-(o-tolyl)-5-(trifluoromethyl)pyridin-2-yl)sulfamoyl)pyridin-2-yl)amino)pentanoic Acid] | 2370 | 407 |
| CC(C)c1ccccc1-c1nc(NS(=O)(=O)c2cccc(N(C)CCC(=O)O)n2)ccc1C(F)(F)F [Compound 44, 3-((6-(N-(6-(2-isopropylphenyl)-5-(trifluoromethyl)pyridin-2-yl)sulfamoyl)pyridin-2-yl)(methyl)amino)propanoic Acid] | 1520 | – |
| Cc1ccc(F)cc1-c1nc(NS(=O)(=O)c2cccc(N(C)CC(C)(C)C(=O)O)n2)ccc1C(F)(F)F [Compound 45, 3-((6-(N-(6-(5-fluoro-2-methylphenyl)-5-(trifluoromethyl)pyridin-2-yl)sulfamoyl)pyridin-2-yl)(methyl)amino)-2,2-dimethylpropanoic Acid] | 1570 | 598 |
| Cc1ccccc1-c1nc(NS(=O)(=O)c2cccc(N(C)CC(C)(C)C(=O)O)n2)ccc1C(F)(F)F [Compound 46, 2,2-dimethyl-3-(methyl(6-(N-(6-(o-tolyl)-5-(trifluoromethyl)pyridin-2-yl)sulfamoyl)pyridin-2-yl)amino)propanoic Acid] | 1810 | 493 |
| Cc1c(F)cccc1-c1nc(NS(=O)(=O)c2cccc(N(C)CC(C)(C)C(=O)O)n2)ccc1C(F)(F)F [Compound 47, 3-((6-(N-(6-(3-fluoro-2-methylphenyl)-5-(trifluoromethyl)pyridin-2-yl)sulfamoyl)pyridin-2-yl)(methyl)amino)-2,2-dimethylpropanoic Acid] | 1820 | 496 |
| Cc1ccc(F)cc1-c1nc(NS(=O)(=O)c2cccc(N(C)CCC(=O)O)n2)ccc1C(F)(F)F [Compound 48, 3-((6-(N-(6-(5-fluoro-2-methylphenyl)-5-(trifluoromethyl)pyridin-2-yl)sulfamoyl)pyridin-2-yl)(methyl)amino)propanoic Acid] | 2040 | 513 |
| Cc1c(F)cccc1-c1nc(NS(=O)(=O)c2cccc(N(C)CCC(=O)O)n2)ccc1C(F)(F)F [Compound 49, 3-((6-(N-(6-(3-fluoro-2-methylphenyl)-5-(trifluoromethyl)pyridin-2-yl)sulfamoyl)pyridin-2-yl)(methyl)amino)propanoic Acid] | 2030 | 557 |
| Cc1c(F)cccc1-c1nc(NS(=O)(=O)c2cccc(N3CCCC(C)(CC(=O)O)C3)n2)ccc1C(F)(F)F (stereo not drawn) [Compound 50, 2-(1-(6-(N-(6-(3-fluoro-2-methylphenyl)-5-(trifluoromethyl)pyridin-2-yl)sulfamoyl)pyridin-2-yl)-3-methylpiperidin-3-yl)acetic Acid] | 2100 | 867 |
| Cc1ccccc1-c1nc(NS(=O)(=O)c2cccc(N3CCCC(C)(CC(=O)O)C3)n2)ccc1C(F)(F)F (stereo not drawn) [Compound 51, 2-(3-methyl-1-(6-(N-(6-(o-tolyl)-5-(trifluoromethyl)pyridin-2-yl)sulfamoyl)pyridin-2-yl)piperidin-3-yl)acetic Acid] | 1600 | – |
| Cc1ccc(F)cc1-c1nc(NS(=O)(=O)c2cccc(N3CCCC(C)(CC(=O)O)C3)n2)ccc1C(F)(F)F (stereo not drawn) [Compound 52, 2-(1-(6-(N-(6-(5-fluoro-2-methylphenyl)-5-(trifluoromethyl)pyridin-2-yl)sulfamoyl)pyridin-2-yl)-3-methylpiperidin-3-yl)acetic Acid] | 1490 | – |
| Cc1ccccc1-c1nc(NS(=O)(=O)c2cccc(N3CCC(C)(CC(=O)O)C3)n2)ccc1C(F)(F)F (stereo not drawn) [Compound 53, 2-(3-methyl-1-(6-(N-(6-(o-tolyl)-5-(trifluoromethyl)pyridin-2-yl)sulfamoyl)pyridin-2-yl)pyrrolidin-3-yl)acetic Acid] | 1780 | 411 |
| Cc1c(F)cccc1-c1nc(NS(=O)(=O)c2cccc(N3CCC(C)(CC(=O)O)C3)n2)ccc1C(F)(F)F (stereo not drawn) [Compound 54, 2-(1-(6-(N-(6-(3-fluoro-2-methylphenyl)-5-(trifluoromethyl)pyridin-2-yl)sulfamoyl)pyridin-2-yl)-3-methylpyrrolidin-3-yl)acetic Acid] | 2000 | 369 |
| Cc1ccc(F)cc1-c1nc(NS(=O)(=O)c2cccc(N3CCC(C)(CC(=O)O)C3)n2)ccc1C(F)(F)F (stereo not drawn) [Compound 55, 2-(1-(6-(N-(6-(5-fluoro-2-methylphenyl)-5-(trifluoromethyl)pyridin-2-yl)sulfamoyl)pyridin-2-yl)-3-methylpyrrolidin-3-yl)acetic Acid] | 1680 | 457 |
| C=Cc1ccccc1-c1nc(NS(=O)(=O)c2cccc(N3CCC[C@H](CC(=O)O)C3)n2)ccc1C(F)(F)F [Compound 57, (R)-2-(1-(6-(N-(5-(trifluoromethyl)-6-(2-vinylphenyl)pyridin-2-yl)sulfamoyl)pyridin-2-yl)piperidin-3-yl)acetic Acid] | 1970 | – |
| C=Cc1ccccc1-c1nc(NS(=O)(=O)c2cccc(N3CCC[C@@H](CC(=O)O)C3)n2)ccc1C(F)(F)F [Compound 58, (S)-2-(1-(6-(N-(5-(trifluoromethyl)-6-(2-vinylphenyl)pyridin-2-yl)sulfamoyl)pyridin-2-yl)piperidin-3-yl)acetic Acid] | 2370 | – |
| Cc1ccccc1-c1nc(NS(=O)(=O)c2cccc(N3CCC[C@H](CC(=O)O)C3)n2)ccc1C(F)(F)F [Compound 59, (R)-2-(1-(6-(N-(6-(o-tolyl)-5-(trifluoromethyl)pyridin-2-yl)sulfamoyl)pyridin-2-yl)piperidin-3-yl)acetic Acid] | 2070 | 920 |
| CCN(CCC(=O)O)c1cccc(S(=O)(=O)Nc2ccc(C(F)(F)F)c(-c3cc(F)ccc3C)n2)n1 [Compound 61, 3-(ethyl(6-(N-(6-(5-fluoro-2-methylphenyl)-5-(trifluoromethyl)pyridin-2-yl)sulfamoyl)pyridin-2-yl)amino)propanoic Acid] | 3560 | 736 |
